# Source: ChEMBL document CHEMBL5465560, “Selectivity Literature for EUbOPEN Chemogenomic Library” (2024)
# Key:
# [1] = system: Phosphatidylinositol 4,5-bisphosphate 3-kinase catalytic subunit alpha isoform (Homo sapiens), P42336 [H1047Y]; assay: (§1) Selectivity interaction (KinomeScan (DiscoverX)) EUB0000229b PIK3CA; details: at 1 µM
# [2] = system: Phosphatidylinositol 4,5-bisphosphate 3-kinase catalytic subunit alpha isoform (Homo sapiens), P42336 [C420R]; assay: as §1; details: at 1 µM
# [3] = system: Phosphatidylinositol 4,5-bisphosphate 3-kinase catalytic subunit alpha isoform (Homo sapiens), P42336 [Q546K]; assay: as §1; details: at 1 µM
# [4] = system: Phosphatidylinositol 4,5-bisphosphate 3-kinase catalytic subunit alpha isoform (Homo sapiens), P42336 [E542K]; assay: as §1; details: at 1 µM
# [5] = system: Phosphatidylinositol 4,5-bisphosphate 3-kinase catalytic subunit alpha isoform (Homo sapiens), P42336 [I800L]; assay: as §1; details: at 1 µM
# [6] = system: Phosphatidylinositol 4,5-bisphosphate 3-kinase catalytic subunit alpha isoform (Homo sapiens), P42336 [H1047L]; assay: as §1; details: at 1 µM
# [7] = molecular target: Phosphatidylinositol 4,5-bisphosphate 3-kinase catalytic subunit alpha isoform (Homo sapiens) (UniProt P42336); assay: as §1; details: at 10 µM
# [8] = system: Phosphatidylinositol 4,5-bisphosphate 3-kinase catalytic subunit alpha isoform (Homo sapiens), P42336 [E545A]; assay: as §1; details: at 1 µM
# [9] = system: Phosphatidylinositol 4,5-bisphosphate 3-kinase catalytic subunit alpha isoform (Homo sapiens), P42336 [M1043I]; assay: as §1; details: at 1 µM
# [10] = system: Phosphatidylinositol 4,5-bisphosphate 3-kinase catalytic subunit alpha isoform (Homo sapiens), P42336 [E545K]; assay: as §1; details: at 1 µM
# [11] = molecular target: T1, Serine/threonine-protein kinase 3 (Homo sapiens) (UniProt Q13188); assay: Selectivity interaction (ProQinase) EUB0000171b STK3
# T1 sequence (whole entry): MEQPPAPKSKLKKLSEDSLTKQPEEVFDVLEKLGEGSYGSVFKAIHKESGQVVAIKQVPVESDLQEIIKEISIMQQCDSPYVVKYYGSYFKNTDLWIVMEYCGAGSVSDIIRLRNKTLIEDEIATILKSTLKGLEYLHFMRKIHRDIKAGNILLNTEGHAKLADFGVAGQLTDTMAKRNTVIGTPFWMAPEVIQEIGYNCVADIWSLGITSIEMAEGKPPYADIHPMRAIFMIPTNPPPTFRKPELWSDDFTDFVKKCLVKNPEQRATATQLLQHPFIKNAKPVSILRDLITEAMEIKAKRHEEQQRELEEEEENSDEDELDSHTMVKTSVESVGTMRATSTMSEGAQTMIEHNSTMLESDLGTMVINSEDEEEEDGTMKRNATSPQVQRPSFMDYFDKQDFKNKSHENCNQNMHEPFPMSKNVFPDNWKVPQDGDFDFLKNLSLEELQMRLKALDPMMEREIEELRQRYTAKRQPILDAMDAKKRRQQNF
# [12] = molecular target: T2, Inhibitor of nuclear factor kappa-B kinase subunit beta (Homo sapiens) (UniProt O14920); details: at 10 µM
# T2 sequence (whole entry): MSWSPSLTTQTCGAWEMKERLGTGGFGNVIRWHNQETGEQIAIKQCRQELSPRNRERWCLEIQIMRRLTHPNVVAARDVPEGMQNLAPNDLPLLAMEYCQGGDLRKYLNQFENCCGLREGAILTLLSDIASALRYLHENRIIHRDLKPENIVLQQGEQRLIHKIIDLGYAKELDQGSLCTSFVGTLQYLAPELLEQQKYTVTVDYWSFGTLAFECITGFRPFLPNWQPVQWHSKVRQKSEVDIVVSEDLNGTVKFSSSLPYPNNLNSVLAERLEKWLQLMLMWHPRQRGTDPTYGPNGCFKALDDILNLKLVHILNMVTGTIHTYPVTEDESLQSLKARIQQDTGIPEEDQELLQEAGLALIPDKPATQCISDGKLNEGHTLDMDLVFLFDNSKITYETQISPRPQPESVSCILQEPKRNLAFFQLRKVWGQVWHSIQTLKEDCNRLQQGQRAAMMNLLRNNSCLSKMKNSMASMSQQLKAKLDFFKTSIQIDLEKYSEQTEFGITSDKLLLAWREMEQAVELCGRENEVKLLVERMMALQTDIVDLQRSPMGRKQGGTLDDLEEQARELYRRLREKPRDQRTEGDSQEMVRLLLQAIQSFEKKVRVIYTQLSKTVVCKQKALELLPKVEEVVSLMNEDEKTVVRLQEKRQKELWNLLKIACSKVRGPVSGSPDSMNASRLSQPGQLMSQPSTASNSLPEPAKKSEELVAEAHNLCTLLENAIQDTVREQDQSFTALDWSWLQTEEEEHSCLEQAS
# [13] = molecular target: T3, Dual specificity tyrosine-phosphorylation-regulated kinase 3 (Homo sapiens, UniProt O43781); assay: Selectivity interaction (Enzymatic assay (Eurofins)) EUB0001049a DYRK3
# T3 sequence (O43781 whole entry): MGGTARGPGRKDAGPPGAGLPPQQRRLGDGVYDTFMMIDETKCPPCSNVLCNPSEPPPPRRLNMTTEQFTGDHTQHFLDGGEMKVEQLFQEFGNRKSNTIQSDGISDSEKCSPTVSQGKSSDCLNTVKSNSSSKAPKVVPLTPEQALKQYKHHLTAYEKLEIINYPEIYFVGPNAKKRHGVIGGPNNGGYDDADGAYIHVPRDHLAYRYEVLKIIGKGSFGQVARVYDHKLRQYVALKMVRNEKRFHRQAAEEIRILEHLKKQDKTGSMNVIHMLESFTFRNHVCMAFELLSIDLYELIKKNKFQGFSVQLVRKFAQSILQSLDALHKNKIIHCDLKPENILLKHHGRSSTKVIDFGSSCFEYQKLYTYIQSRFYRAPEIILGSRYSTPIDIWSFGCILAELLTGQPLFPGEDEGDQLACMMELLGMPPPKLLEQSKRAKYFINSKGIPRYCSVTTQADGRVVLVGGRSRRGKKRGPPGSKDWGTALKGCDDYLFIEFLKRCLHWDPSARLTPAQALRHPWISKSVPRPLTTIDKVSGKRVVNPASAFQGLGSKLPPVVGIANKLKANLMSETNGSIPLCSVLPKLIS
# [14] = molecular target: Casein kinase II subunit alpha (Homo sapiens, UniProt P68400); assay: Selectivity interaction (KinomeScan (DiscoverX)) EUB0001619a CSNK2A1; details: at 1 µM
# Casein kinase II subunit alpha, sequence (P68400 whole entry, looked up): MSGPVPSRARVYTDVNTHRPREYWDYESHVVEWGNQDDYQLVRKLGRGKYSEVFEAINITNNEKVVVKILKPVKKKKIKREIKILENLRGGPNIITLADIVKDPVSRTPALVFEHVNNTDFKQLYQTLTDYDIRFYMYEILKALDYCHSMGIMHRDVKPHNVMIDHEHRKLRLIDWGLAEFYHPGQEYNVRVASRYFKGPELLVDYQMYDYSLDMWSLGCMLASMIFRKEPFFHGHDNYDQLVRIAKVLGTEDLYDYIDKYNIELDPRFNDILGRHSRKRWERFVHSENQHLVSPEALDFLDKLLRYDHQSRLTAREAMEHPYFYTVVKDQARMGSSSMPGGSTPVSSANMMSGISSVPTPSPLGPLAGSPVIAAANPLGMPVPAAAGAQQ
# Phosphatidylinositol 4,5-bisphosphate 3-kinase catalytic subunit alpha isoform (Homo sapiens), P42336 [E545K], sequence (P42336 whole entry E545K, canonical isoform): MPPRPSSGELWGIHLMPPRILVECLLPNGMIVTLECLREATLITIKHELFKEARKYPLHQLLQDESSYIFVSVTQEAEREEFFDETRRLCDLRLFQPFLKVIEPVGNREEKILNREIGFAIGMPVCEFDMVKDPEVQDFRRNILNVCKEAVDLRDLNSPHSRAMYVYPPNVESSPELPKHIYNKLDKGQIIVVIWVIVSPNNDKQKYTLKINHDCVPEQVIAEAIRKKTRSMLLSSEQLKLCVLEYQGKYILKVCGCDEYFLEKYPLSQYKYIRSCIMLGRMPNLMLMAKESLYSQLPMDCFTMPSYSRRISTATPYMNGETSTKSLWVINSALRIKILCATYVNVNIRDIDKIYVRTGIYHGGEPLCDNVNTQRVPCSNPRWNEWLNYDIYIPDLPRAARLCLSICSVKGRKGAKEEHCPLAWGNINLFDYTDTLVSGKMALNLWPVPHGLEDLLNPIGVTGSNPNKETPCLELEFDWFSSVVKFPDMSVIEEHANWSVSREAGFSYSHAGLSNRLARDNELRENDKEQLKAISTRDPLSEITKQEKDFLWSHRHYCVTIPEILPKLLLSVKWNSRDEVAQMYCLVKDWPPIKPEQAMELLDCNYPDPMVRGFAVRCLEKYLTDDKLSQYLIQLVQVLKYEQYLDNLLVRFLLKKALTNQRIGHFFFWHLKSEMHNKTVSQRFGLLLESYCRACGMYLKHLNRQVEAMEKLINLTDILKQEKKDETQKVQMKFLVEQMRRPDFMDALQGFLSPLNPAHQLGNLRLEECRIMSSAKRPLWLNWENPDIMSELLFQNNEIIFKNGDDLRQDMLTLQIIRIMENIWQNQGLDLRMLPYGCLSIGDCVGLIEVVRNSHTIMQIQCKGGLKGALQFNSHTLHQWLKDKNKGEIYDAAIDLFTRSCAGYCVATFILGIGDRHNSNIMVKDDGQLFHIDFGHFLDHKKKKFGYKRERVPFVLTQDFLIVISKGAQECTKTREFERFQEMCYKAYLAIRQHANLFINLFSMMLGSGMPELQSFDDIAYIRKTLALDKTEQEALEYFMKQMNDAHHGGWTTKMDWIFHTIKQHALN
# Phosphatidylinositol 4,5-bisphosphate 3-kinase catalytic subunit alpha isoform (Homo sapiens), P42336 [M1043I], sequence (P42336 whole entry M1043I, canonical isoform): as the sequence (P42336 whole entry E545K, canonical isoform) above, with K545E, M1043I counted along it
# Phosphatidylinositol 4,5-bisphosphate 3-kinase catalytic subunit alpha isoform (Homo sapiens), sequence (P42336 whole entry, canonical isoform): as the sequence (P42336 whole entry E545K, canonical isoform) above, with K545E counted along it
# Phosphatidylinositol 4,5-bisphosphate 3-kinase catalytic subunit alpha isoform (Homo sapiens), P42336 [E542K], sequence (P42336 whole entry E542K, canonical isoform): as the sequence (P42336 whole entry E545K, canonical isoform) above, with E542K, K545E counted along it
# Phosphatidylinositol 4,5-bisphosphate 3-kinase catalytic subunit alpha isoform (Homo sapiens), P42336 [I800L], sequence (P42336 whole entry I800L, canonical isoform): as the sequence (P42336 whole entry E545K, canonical isoform) above, with K545E, I800L counted along it
# Phosphatidylinositol 4,5-bisphosphate 3-kinase catalytic subunit alpha isoform (Homo sapiens), P42336 [E545A], sequence (P42336 whole entry E545A, canonical isoform): as the sequence (P42336 whole entry E545K, canonical isoform) above, with K545A counted along it
# Phosphatidylinositol 4,5-bisphosphate 3-kinase catalytic subunit alpha isoform (Homo sapiens), P42336 [Q546K], sequence (P42336 whole entry Q546K, canonical isoform): as the sequence (P42336 whole entry E545K, canonical isoform) above, with K545E, Q546K counted along it
# Phosphatidylinositol 4,5-bisphosphate 3-kinase catalytic subunit alpha isoform (Homo sapiens), P42336 [H1047L], sequence (P42336 whole entry H1047L, canonical isoform): as the sequence (P42336 whole entry E545K, canonical isoform) above, with K545E, H1047L counted along it
# Phosphatidylinositol 4,5-bisphosphate 3-kinase catalytic subunit alpha isoform (Homo sapiens), P42336 [C420R], sequence (P42336 whole entry C420R, canonical isoform): as the sequence (P42336 whole entry E545K, canonical isoform) above, with C420R, K545E counted along it
# Phosphatidylinositol 4,5-bisphosphate 3-kinase catalytic subunit alpha isoform (Homo sapiens), P42336 [H1047Y], sequence (P42336 whole entry H1047Y, canonical isoform): as the sequence (P42336 whole entry E545K, canonical isoform) above, with K545E, H1047Y counted along it
smiles,measurement,setting,value
COc1cc(N(C)c2ccnc3ccc(C(F)(F)F)cc23)cc(OC)c1OC,% binding,[1],90%
same,% binding,[2],87%
same,% binding,[3],81%
same,% binding,[4],90%
same,% binding,[5],72%
same,% binding,[6],63%
same,% binding,[7],100%
same,% binding,[8],67%
same,% binding,[9],87%
same,% binding,[10],76%
C=CC(=O)Nc1cccc(C(=O)Nc2ccc(Nc3cc(-c4[nH]c(SC)nc4C)ccn3)cc2)c1,% of control,[11]; at 1 µM,83%
same,% of control,[11]; at 5 µM,69%
Cc1cc([C@@H](C)Nc2ccccc2C(=O)O)c2nc(N3CCOCC3)cc(=O)n2c1 [AZD-6482],% of control,[12],90%
COc1cc(Nc2nc(C)cc(-c3cnn4nc(OC)ccc34)n2)cc(C(F)(F)F)c1,IC50,[13],> 10 µM
N#Cc1cccc(-c2c[nH]c3ncnc(N4CCOCC4)c23)c1,% of control,[14],75%
